Laboratory results taken from US20260060961A1, “SUBSTITUTED HETEROCYCLES AS RAS INHIBITORS” (Jazz Pharmaceuticals Ireland Limited, priority 2022, published 2026).

biological target: Recombinant human KRAS protein containing the G12C amino acid substitution (Homo sapiens (Human), UniProt P01116, G12C); assay: HTRF nucleotide exchange assay, KRAS G12C; assay type: biochemical; conditions: 180 minute incubation with compound at room temperature; at least two independent replicates; read-out: KRAS G12C HTRF NEA IC50
Sequence (P01116 other isoform, or with tags, fused parts or gaps G12C): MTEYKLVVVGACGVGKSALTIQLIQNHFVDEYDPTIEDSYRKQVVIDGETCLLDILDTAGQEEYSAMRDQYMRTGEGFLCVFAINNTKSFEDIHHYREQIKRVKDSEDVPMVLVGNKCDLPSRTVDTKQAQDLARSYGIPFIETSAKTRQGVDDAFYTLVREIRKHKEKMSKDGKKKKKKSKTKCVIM
Method: The capacity of compounds to bind KRAS G12C and KRAS wildtype was quantified using a HTRF nucleotide exchange assay. Recombinant human KRAS protein (5 nM; aa1-188 KRAS WT or KRAS containing the G12C amino acid substitution, an N-terminal 6×His-tag and leader sequence), and 2 nM Europium-labeled anti-6×His antibody were mixed in assay buffer (10 mM HEPES pH7.3, 75 mM NaCl, 5 mM MgCl2, 0.05% BSA, 0.0025% NP-40 and 100 mM KF) with various concentrations of compound in a 384-well plate and a volume of 5 μL. After a 180 minute incubation at room temperature, 5 μl of 200 nM EDA-GTP-DY647P1 diluted in assay buffer was added to the plate. Following 30-minute incubation at room temperature, time-resolved fluorescence was measured on a PerkinElmer Envision plate reader. DMSO (0.3%) and unlabeled GDP (1 μM) or equivalent tool compound were used to generate the Max and Min assay signals, respectively. Data was analysed using a four-parameter logistic model to calculate IC50 values, with at least two independent replicates were performed for each compound.

| IC50 | Compound |
| --- | --- |
| ≤ 1000 nM | C=CC(=O)N1CC2(CC(c3nc(-c4ccc5c(cnn5C)c4)c(-c4c(C)ccc5[nH]ncc45)n3C)C2)C1 [Example 1, 1-[6-[1-methyl-4-(1-methylindazol-5-yl)-5-(5-methyl-1H-indazol-4-yl)imidazol-2-yl]-2-azaspiro[3.3]heptan-2-yl]prop-2-en-1-one] |
| 1000 to 10000 nM | C=CC(=O)N1CC2(CC(c3nc(-c4ccccc4)c(-c4c(C)ccc5[nH]ncc45)n3C)C2)C1 [Example 2, 1-[6-[1-methyl-5-(5-methyl-1H-indazol-4-yl)-4-phenyl-imidazol-2-yl]-2-azaspiro[3.3]heptan-2-yl]prop-2-en-1-one] |
| ≥ 10000 nM | C=CC(=O)N1CC2(CC(c3nc(-c4cccnc4)c(-c4c(C)ccc5[nH]ncc45)n3C)C2)C1 [Example 3, 1-[6-[1-methyl-5-(5-methyl-1H-indazol-4-yl)-4-(3-pyridyl)imidazol-2-yl]-2-azaspiro[3.3]heptan-2-yl]prop-2-en-1-one] |
| 1000 to 10000 nM | C=CC(=O)N1CC2(CC(c3nc(-c4ccc(OC)cc4F)c(-c4c(C)ccc5[nH]ncc45)n3C)C2)C1 [Example 4, 1-[6-[4-(2-fluoro-4-methoxy-phenyl)-1-methyl-5-(5-methyl-1H-indazol-4-yl)imidazol-2-yl]-2-azaspiro[3.3]heptan-2-yl]prop-2-en-1-one] |
| ≤ 1000 nM | C=CC(=O)N1CC2(CC(c3nc(-c4ccc(N5CCOCC5)cc4)c(-c4c(C)ccc5[nH]ncc45)n3C)C2)C1 [Example 5, 1-[6-[1-methyl-5-(5-methyl-1H-indazol-4-yl)-4-(4-morpholinophenyl)imidazol-2-yl]-2-azaspiro[3.3]heptan-2-yl]prop-2-en-1-one] |
| 1000 to 10000 nM | C=CC(=O)N1CC2(CC(c3nc(-c4cccc(N5CCOCC5)c4)c(-c4c(C)ccc5[nH]ncc45)n3C)C2)C1 [Example 6, 1-[6-[1-methyl-5-(5-methyl-1H-indazol-4-yl)-4-(3-morpholinophenyl)imidazol-2-yl]-2-azaspiro[3.3]heptan-2-yl]prop-2-en-1-one] |
| 1000 to 10000 nM | C=CC(=O)N1CC2(CC(c3nc(-c4ccc5cnn(C)c5c4)c(-c4c(C)ccc5[nH]ncc45)n3C)C2)C1 [Example 7, 1-[6-[1-methyl-4-(1-methylindazol-6-yl)-5-(5-methyl-1H-indazol-4-yl)imidazol-2-yl]-2-azaspiro[3.3]heptan-2-yl]prop-2-en-1-one] |
| 1000 to 10000 nM | C=CC(=O)N1CC2(CC(c3nc(-c4ccc(-n5cnc(C6CC6)c5)cc4)c(-c4c(C)ccc5[nH]ncc45)n3C)C2)C1 [Example 8, 1-[6-[4-[4-(4-cyclopropylimidazol-1-yl)phenyl]-1-methyl-5-(5-methyl-1H-indazol-4-yl)imidazol-2-yl]-2-azaspiro[3.3]heptan-2-yl]prop-2-en-1-one] |
| 1000 to 10000 nM | C=CC(=O)N1CC2(CC(c3nc(-c4ccc5c(c4)nc(C)n5C)c(-c4c(C)ccc5[nH]ncc45)n3C)C2)C1 [Example 9, 1-[6-[4-(1,2-dimethylbenzimidazol-5-yl)-1-methyl-5-(5-methyl-1H-indazol-4-yl)imidazol-2-yl]-2-azaspiro[3.3]heptan-2-yl]prop-2-en-1-one] |
| ≥ 10000 nM | C=CC(=O)N1CC2(CC(c3nc(-c4cnn(CCN5CCOCC5)c4)c(-c4c(C)ccc5[nH]ncc45)n3C)C2)C1 [Example 10, 1-[6-[1-methyl-5-(5-methyl-1H-indazol-4-yl)-4-[1-(2-morpholinoethyl)pyrazol-4-yl]imidazol-2-yl]-2-azaspiro[3.3]heptan-2-yl]prop-2-en-1-one] |
| 1000 to 10000 nM | C=CC(=O)N1CC2(CC(c3nc(-c4ccc5c(cnn5C)c4C)c(-c4c(C)ccc5[nH]ncc45)n3C)C2)C1 [Example 11, 1-[6-[4-(1,4-dimethylindazol-5-yl)-1-methyl-5-(5-methyl-1H-indazol-4-yl)imidazol-2-yl]-2-azaspiro[3.3]heptan-2-yl]prop-2-en-1-one] |
| ≥ 10000 nM | C=CC(=O)N1CC2(CC(c3nc(-c4cn(C)nc4C)c(-c4c(C)ccc5[nH]ncc45)n3C)C2)C1 [Example 12, 1-[6-[4-(1,3-dimethylpyrazol-4-yl)-1-methyl-5-(5-methyl-1H-indazol-4-yl)imidazol-2-yl]-2-azaspiro[3.3]heptan-2-yl]prop-2-en-1-one] |
| ≥ 10000 nM | C=CC(=O)N1CC2(CC(c3nc(-c4cnn(CC)c4)c(-c4c(C)ccc5[nH]ncc45)n3C)C2)C1 [Example 13, 1-[6-[4-(1-ethylpyrazol-4-yl)-1-methyl-5-(5-methyl-1H-indazol-4-yl)imidazol-2-yl]-2-azaspiro[3.3]heptan-2-yl]prop-2-en-1-one] |
| ≤ 1000 nM | C=CC(=O)N1CC2(CC(c3nc(-c4ccc5nn(C)cc5c4)c(-c4c(C)ccc5[nH]ncc45)n3C)C2)C1 [Example 14, 1-[6-[1-methyl-4-(2-methylindazol-5-yl)-5-(5-methyl-1H-indazol-4-yl)imidazol-2-yl]-2-azaspiro[3.3]heptan-2-yl]prop-2-en-1-one] |
| ≥ 10000 nM | C=CC(=O)N1CC2(CC(c3nc(-c4cnn(CCOC)c4)c(-c4c(C)ccc5[nH]ncc45)n3C)C2)C1 [Example 15, 1-[6-[4-[1-(2-methoxyethyl)pyrazol-4-yl]-1-methyl-5-(5-methyl-1H-indazol-4-yl)imidazol-2-yl]-2-azaspiro[3.3]heptan-2-yl]prop-2-en-1-one] |
| 1000 to 10000 nM | C=CC(=O)N1CC2(CC(c3nc(-c4ccc5c(c4)c(C)nn5C)c(-c4c(C)ccc5[nH]ncc45)n3C)C2)C1 [Example 16, 1-[6-[4-(1,3-dimethylindazol-5-yl)-1-methyl-5-(5-methyl-1H-indazol-4-yl)imidazol-2-yl]-2-azaspiro[3.3]heptan-2-yl]prop-2-en-1-one] |
| 1000 to 10000 nM | C=CC(=O)N1CC2(CC(c3nc(-c4ccc5ocnc5c4)c(-c4c(C)ccc5[nH]ncc45)n3C)C2)C1 [Example 17, 1-[6-[4-(1,3-benzoxazol-5-yl)-1-methyl-5-(5-methyl-1H-indazol-4-yl)imidazol-2-yl]-2-azaspiro[3.3]heptan-2-yl]prop-2-en-1-one] |
| ≤ 1000 nM | C=CC(=O)N1CC2(CC(c3nc(-c4ccc5c(c4)OCCN5C)c(-c4c(C)ccc5[nH]ncc45)n3C)C2)C1 [Example 18, 1-[6-[1-methyl-4-(4-methyl-2,3-dihydro-1,4-benzoxazin-7-yl)-5-(5-methyl-1H-indazol-4-yl)imidazol-2-yl]-2-azaspiro[3.3]heptan-2-yl]prop-2-en-1-one] |
| 1000 to 10000 nM | C=CC(=O)N1CC2(CC(c3nc(-c4ccc(OCC(=O)N(C)C)cc4)c(-c4c(C)ccc5[nH]ncc45)n3C)C2)C1 [Example 19, N,N-dimethyl-2-[4-[1-methyl-5-(5-methyl-1H-indazol-4-yl)-2-(2-prop-2-enoyl-2-azaspiro[3.3]heptan-6-yl)imidazol-4-yl]phenoxy]acetamide] |
| 1000 to 10000 nM | C=CC(=O)N1CC2(CC(c3nc(-c4ccc(OCC(=O)N5CCOCC5)cc4)c(-c4c(C)ccc5[nH]ncc45)n3C)C2)C1 [Example 20, 1-[6-[1-methyl-5-(5-methyl-1H-indazol-4-yl)-4-[4-(2-morpholino-2-oxo-ethoxy)phenyl]imidazol-2-yl]-2-azaspiro[3.3]heptan-2-yl]prop-2-en-1-one] |
| 1000 to 10000 nM | C=CC(=O)N1CC2(CC(c3nc(-c4ccc(C(=O)NCCN(C)C)cc4)c(-c4c(C)ccc5[nH]ncc45)n3C)C2)C1 [Example 22, N-[2-(dimethylamino)ethyl]-4-[1-methyl-5-(5-methyl-1H-indazol-4-yl)-2-(2-prop-2-enoyl-2-azaspiro[3.3]heptan-6-yl)imidazol-4-yl]benzamide] |
| 1000 to 10000 nM | C=CC(=O)N1CC2(CC(c3nc(-c4ccc(C(=O)NCC(F)(F)F)c(OC)c4)c(-c4c(C)ccc5[nH]ncc45)n3C)C2)C1 [Example 23, 2-methoxy-4-[1-methyl-5-(5-methyl-1H-indazol-4-yl)-2-(2-prop-2-enoyl-2-azaspiro[3.3]heptan-6-yl)95midazole-4-yl]-N-(2,2,2-trifluoroethyl)benzamide] |
| ≤ 1000 nM | C=CC(=O)N1CC2(CC(c3nc(-c4ccc5c(cnn5C)c4)c(-c4c(C)ccc5[nH]ncc45)n3CC)C2)C1 [Example 24, 1-[6-[1-ethyl-4-(1-methylindazol-5-yl)-5-(5-methyl-1H-indazol-4-yl)imidazol-2-yl]-2-azaspiro[3.3]heptan-2-yl]prop-2-en-1-one] |
| ≥ 10000 nM | C=CC(=O)N1CC2(CC(c3nc(-c4c(C)ccc5[nH]ncc45)c(-c4ccc5c(cnn5C)c4)n3C)C2)C1 [Example 25, 1-[6-[1-methyl-5-(1-methylindazol-5-yl)-4-(5-methyl-1H-indazol-4-yl)imidazol-2-yl]-2-azaspiro[3.3]heptan-2-yl]prop-2-en-1-one] |
| ≤ 1000 nM | C=CC(=O)N1CC2(CC(c3nc(-c4ccc5c(cnn5C)c4)c(-c4cc(O)cc5ccccc45)n3C)C2)C1 [Example 26, 1-[6-[5-(3-hydroxy-1-naphthyl)-1-methyl-4-(1-methylindazol-5-yl)imidazol-2-yl]-2-azaspiro[3.3]heptan-2-yl]prop-2-en-1-one] |
| ≤ 1000 nM | C=CC(=O)N1CC2(CC(c3nc(-c4ccc(N5CCOCC5)cc4)c(-c4cc(O)cc5ccccc45)n3C)C2)C1 [Example 27, 1-[6-[5-(3-hydroxy-1-naphthyl)-1-methyl-4-(4-morpholinophenyl)imidazol-2-yl]-2-azaspiro[3.3]heptan-2-yl]prop-2-en-1-one] |
